The test system of this data set is CCRIS mutagenicity, Ames/micronucleus/aberration tests. Description: CCRIS mutagenicity studies.
The mark [1] stands for this setting: Test System: AMES SALMONELLA TYPHIMURIUM, Strain/Indicator: TA98, Metabolic Activation: NONE, Method: PREINCUBATION
Where [2] appears, read: Test System: AMES SALMONELLA TYPHIMURIUM, Strain/Indicator: TA100, Metabolic Activation: NONE, Method: PREINCUBATION
Setting [3] is: Test System: AMES SALMONELLA TYPHIMURIUM, Strain/Indicator: TA1535, Metabolic Activation: NONE, Method: PREINCUBATION
[4] abbreviates: Test System: AMES SALMONELLA TYPHIMURIUM, Strain/Indicator: TA100, Metabolic Activation: NONE, Method: STANDARD PLATE.
The mark [5] stands for this setting: Test System: AMES SALMONELLA TYPHIMURIUM, Strain/Indicator: TA1537, Metabolic Activation: NONE, Method: STANDARD PLATE.
The mark [6] stands for this setting: Test System: AMES SALMONELLA TYPHIMURIUM, Strain/Indicator: TA100, Metabolic Activation: RAT, LIVER, S-9, AROCLOR 1254, Method: PREINCUBATION
[7] abbreviates: Test System: AMES SALMONELLA TYPHIMURIUM, Strain/Indicator: TA1535, Metabolic Activation: NONE, Method: STANDARD PLATE.
[8] abbreviates: Test System: AMES SALMONELLA TYPHIMURIUM, Strain/Indicator: TA100, Metabolic Activation: RAT, LIVER, S-9, AROCLOR 1254, Method: STANDARD PLATE.
Where [9] appears, read: Test System: AMES SALMONELLA TYPHIMURIUM, Strain/Indicator: TA1537, Metabolic Activation: RAT, LIVER, S-9, AROCLOR 1254, Method: STANDARD PLATE.

Calls of active or inactive are those of the source. How the calls were made is not given here.

On to `O=C1OCCO1`, for which the mutagenic call is “inactive; negative” under setting [1]; “inactive; negative” (Test System: AMES SALMONELLA TYPHIMURIUM, Strain/Indicator: TA98, Metabolic Activation: RAT LIVER S-9, PHENOBARBITAL AND BETA-NAPHTHOFLAVONE, Method: PREINCUBATION); “inactive; negative” under setting [2]; “inactive; negative” (Test System: AMES SALMONELLA TYPHIMURIUM, Strain/Indicator: TA100, Metabolic Activation: RAT LIVER S-9, PHENOBARBITAL AND BETA-NAPHTHOFLAVONE, Method: PREINCUBATION); “inactive; negative” under setting [3]; “inactive; negative” (Test System: AMES SALMONELLA TYPHIMURIUM, Strain/Indicator: TA1535, Metabolic Activation: RAT LIVER S-9, PHENOBARBITAL AND BETA-NAPHTHOFLAVONE, Method: PREINCUBATION). Moreover, the mutagenic call (Test System: AMES SALMONELLA TYPHIMURIUM, Strain/Indicator: TA1537, Metabolic Activation: NONE, Method: PREINCUBATION) was “inactive; negative”; the mutagenic call (Test System: AMES SALMONELLA TYPHIMURIUM, Strain/Indicator: TA1537, Metabolic Activation: RAT LIVER S-9, PHENOBARBITAL AND BETA-NAPHTHOFLAVONE, Method: PREINCUBATION) is “inactive; negative”; the mutagenic call (Test System: E.COLI, Strain/Indicator: WP2UVRA/PKM101, Metabolic Activation: NONE, Method: PREINCUBATION) is “inactive; negative”; the mutagenic call (Test System: E.COLI, Strain/Indicator: WP2UVRA/PKM101, Metabolic Activation: RAT LIVER S-9, PHENOBARBITAL AND BETA-NAPHTHOFLAVONE, Method: PREINCUBATION) was “inactive; negative”.

With `CCc1c2ccccc2cc2c3c(ccc12)[C@H](O)[C@@H](O)[C@H]1O[C@@H]31`, the mutagenic call is “active; positive” under setting [1]; “active; positive” under setting [2]; “active; positive” (Test System: CHINESE HAMSTER V-79, Strain/Indicator: V-79/6-THIOGUANINE, Metabolic Activation: NONE).

As for `Cc1c2ccccc2c(CCl)c2ccc3ccccc3c12`, the mutagenic call runs as follows: under setting [4], “active; positive”; under setting [5], “active; positive”.

In the case of `CSCCCCN=C=S`, the mutagenic call (End Point: IN VITRO MICRONUCLEUS, Test System: HUMAN T-LYMPHOCYTES, Metabolic Activation: NONE) was “inactive; negative”.

Regarding `C=C(C=O)CCC`, the mutagenic call (Test System: AMES SALMONELLA TYPHIMURIUM, Strain/Indicator: TA100, Metabolic Activation: RAT LIVER S-9, AROCLOR 1254, Method: PREINCUBATION) was “active; positive” and the mutagenic call under setting [6] is “active; positive”.

For the compound `COc1ccc(CCC2CO2)cc1` (stereo unspecified), the mutagenic call reads like this: under setting [2], “active; positive”; under setting [4], “active; positive”; under setting [3], “active; positive”; under setting [7], “active; positive”.

Take `CN(C)C(=O)c1nc(CNC(=O)CN)n(-c2ccc(Cl)cc2C(=O)c2ccccc2Cl)n1`: the mutagenic call is, setting by setting: (Test System: AMES SALMONELLA TYPHIMURIUM, Strain/Indicator: TA98, Metabolic Activation: NONE, Method: STANDARD PLATE) “inactive; negative”; (Test System: AMES SALMONELLA TYPHIMURIUM, Strain/Indicator: TA98, Metabolic Activation: RAT, LIVER, S-9, AROCLOR 1254, Method: STANDARD PLATE) “inactive; negative”; under setting [4], “inactive; negative”; under setting [8], “inactive; negative”; (Test System: AMES SALMONELLA TYPHIMURIUM, Strain/Indicator: TA102, Metabolic Activation: NONE, Method: STANDARD PLATE) “inactive; negative”; (Test System: AMES SALMONELLA TYPHIMURIUM, Strain/Indicator: TA102, Metabolic Activation: RAT, LIVER, S-9, AROCLOR 1254, Method: STANDARD PLATE) “inactive; negative”. Besides, the mutagenic call under setting [7] was “inactive; negative”; the mutagenic call (Test System: AMES SALMONELLA TYPHIMURIUM, Strain/Indicator: TA1535, Metabolic Activation: RAT, LIVER, S-9, AROCLOR 1254, Method: STANDARD PLATE) is “inactive; negative”; the mutagenic call under setting [5] was “inactive; negative”; the mutagenic call under setting [9] was “inactive; negative”; the mutagenic call (Test System: E. COLI, Strain/Indicator: WP2 UVRA, Metabolic Activation: NONE, Method: STANDARD PLATE) is “inactive; negative”; the mutagenic call (Test System: E. COLI, Strain/Indicator: WP2 UVRA, Metabolic Activation: RAT, LIVER, S-9, AROCLOR 1254, Method: STANDARD PLATE) was “inactive; negative”.

As to `c1ccc2c(c1)-c1ccc3ccc4cccc5cc-2c1c3c45`, the mutagenic call by setting is: under setting [4], “inactive; negative”; under setting [6], “active; positive”; under setting [8], “active; positive”; under setting [9], “active; positive”; (Test System: AMES SALMONELLA TYPHIMURIUM, Strain/Indicator: TA1538, Metabolic Activation: RAT, LIVER, S-9, AROCLOR 1254, Method: STANDARD PLATE) “active; positive”.

For the compound `c1cc(OCC2CO2)c2sncc2c1` (stereo unspecified), under setting [4], the mutagenic call is “active; positive”.

On to `CCCCCCCCCCCCN=C(N)N`, for which the mutagenic call was “inactive; negative” (End Point: In vitro chromosomal aberrations, Test System: Cultured human (male) lymphocytes, Metabolic Activation: None); “inactive; negative” (End Point: In vitro chromosomal aberrations, Test System: Cultured human (male) lymphocytes, Metabolic Activation: S-9); “inactive; negative” (End Point: In vivo micronucleus, Test System: Blood erythrocytes, Species: Mouse, Strain/Sex: ICR (male and female), 5-20/sex/dose, Route: Oral); “inactive; negative” (End Point: In vivo micrunucleus, Test System: Bone marrow polychromatic erythrocytes, Species: Mouse, Strain/Sex: Males and females, Route: Oral); “inactive; negative” (Test System: Ames Salmonella typhimurium, Strain/Indicator: TA98, Metabolic Activation: None, Method: Plate incorporation); “inactive; negative” (Test System: Ames Salmonella typhimurium, Strain/Indicator: TA98, Metabolic Activation: Rat, Liver, S-9, Aroclor, Method: Plate incorporation). Further, the mutagenic call (Test System: Ames Salmonella typhimurium, Strain/Indicator: TA100, Metabolic Activation: None, Method: Plate incorporation) is “inactive; negative”; the mutagenic call (Test System: Ames Salmonella typhimurium, Strain/Indicator: TA100, Metabolic Activation: Rat, Liver, S-9, Aroclor, Method: Plate incorporation) was “inactive; negative”; the mutagenic call (Test System: Ames Salmonella typhimurium, Strain/Indicator: TA1535, Metabolic Activation: None, Method: Plate incorporation) was “inactive; negative”; the mutagenic call (Test System: Ames Salmonella typhimurium, Strain/Indicator: TA1535, Metabolic Activation: Rat, Liver, S-9, Aroclor, Method: Plate incorporation) was “inactive; negative”; the mutagenic call (Test System: Ames Salmonella typhimurium, Strain/Indicator: TA1537, Metabolic Activation: None, Method: Plate incorporation) is “inactive; negative”; the mutagenic call (Test System: Ames Salmonella typhimurium, Strain/Indicator: TA1537, Metabolic Activation: Rat, Liver, S-9, Aroclor, Method: Plate incorporation) is “inactive; negative”. The mutagenic call runs as follows: (Test System: Chinese hamster ovary (CHO) cells, Strain/Indicator: CHO/6-Thioguanine, Metabolic Activation: None) “inactive; negative”; (Test System: Chinese hamster ovary (CHO) cells, Strain/Indicator: CHO/6-Thioguanine, Metabolic Activation: S-9) “inactive; negative”; (Test System: E. coli, Strain/Indicator: WP2uvrA, Metabolic Activation: None, Method: Plate incorporation) “inactive; negative”; (Test System: E. coli, Strain/Indicator: WP2uvrA, Metabolic Activation: Rat, Liver, S-9, Method: Plate incorporation) “inactive; negative”.

The values above are taken from PubChem BioAssay AID1259407 (Chemical Carcinogenesis Research Information System (CCRIS), 2018).
